# Reference: patent publication US11072635B2, “Macrocyclic broad spectrum antibiotics” (priority 2015, dated 2021)
# Where two headings read alike, the source gives them in different places.
# Legend:
# [1] = system: Methicillin Resistant Staphylococcus aureus strain USA 300, NRS384 (S. aureus); assay: Minimum inhibitory concentration, broth micro-dilution (CLSI); format: cell-based
# Description: (§1) In vitro antimicrobial activity of each compound was determined by measuring minimal inhibitor concentrations (MICs) using the broth micro-dilution technique as approved by the Clinical and Laboratory Standards Institute (CLSI) (Methods for Dilution Antimicrobial Susceptibility Tests for Bacteria that Grow Aerobically; Approved Standard—Eighth Edition. CLSI document M07-A8. Wayne, Pa.: Clinical and Laboratory Standards; 2009). Antibacterial activity was measure against three strains of bacteria: a Methicillin Resistant Staphylococcus aureus strain USA 300, NRS384 (S. aureus); a strain of Escherichia coli MC4100 harboring the IMP4213 (E. coli IMP), which results in increased outer-membrane permeability (B Martin and Silhavy T. Imp/OstA is required for cell envelope biogenesis in Escherichia coli. (2002) Molecular Microbiology, 45(5), 1289-1302), and Escherichia coli ATCC 25922 (E. coli), a clinically relevant Gram-negative strain. Cells were inoculated onto plates of Trypyticase Soy Agar or Luria Agar respectively and grown at 35° C. for 20 hours. Inocula suspensions were prepared by scraping cells into 1 mL of testing media (cation adjusted Mueller Hinton Broth supplemented with 0.002% v/v Tween-80) and diluting to a final OD600 nm of 0.01.
# (§2) Test compounds were prepared in DMSO at a concentration of 10 mg/mL. […] In protocol 2, the compound stocks were diluted into testing media at a concentration of 4 μg/mL and serial 2-fold dilutions were made in the same media, in 96-well U bottom microtiter dishes, for a total of 10 compound concentrations. In protocol 3, compound stocks were diluted into testing media at a concentration of 0.5 μg/mL, with serial 2-fold dilutions conducted as described above. […] Inocula suspensions were added to the 2-fold serial dilutions of test compounds to a final density of OD OD600 nm of 0.0005 and incubated at 35° C. for 22 hours.
# [2] = system: Escherichia coli ATCC 25922 (E. coli); assay: as above; format: cell-based; settings: read-out: MIC (μg/mL) E. coli
# Description: Cells were inoculated onto plates of Trypyticase Soy Agar or Luria Agar respectively and grown at 35° C. for 20 hours. Inocula suspensions were prepared by scraping cells into 1 mL of testing media (cation adjusted Mueller Hinton Broth supplemented with 0.002% v/v Tween-80) and diluting to a final OD600 nm of 0.01.
# as §2
# [3] = system: Escherichia coli MC4100 harboring the IMP4213 (E. coli IMP); assay: microbe, parasite or virus in culture; format: cell-based; settings: 22 h, read-out: MIC (μg/mL) E. coli IMP
# Description: as §1, §2
# [4] = molecular target: T1, SpsB (Staphylococcus aureus signal peptidase) (Staphylococcus aureus, UniProt P0A070); assay: Whole-cell SpsB biochemical screening assay (kinetic fluorogenic enzyme activity)
# T1 construct: a suspension of Staphylococcus aureus cells as a source of SpsB instead of recombinant SpsB protein; endogenous in cells; host or cells: S. aureus, USA300 background, overexpressing SpsB (whole-cell suspension)
# Description: A kinetic fluorogenic enzyme activity assay was used to assess inhibition of SpsB (Staphylococcus aureus signal peptidase) activity and IC50s were determined. This assay uses a suspension of Staphylococcus aureus cells as a source of SpsB instead of recombinant SpsB protein.
# Cell preparation: Luria broth (LB) was inoculated with S. aureus (USA300 background, overexpressing SpsB) and shaken at 37° C. until an OD600 nm of 1.5-2.0 was reached (˜4 hr). The culture was then diluted to an OD600 nm of 1.0 with LB, aliquoted and centrifuged at 10,000×g for 2 mins. The supernatant was removed and the pellet was resuspended in phosphate buffer (1×PBS, 12.5 mg/L MgCl2, 25 mg/L CaCl2, 0.1% Tween-80) to an OD600 nm of 0.5, then centrifuged again at 10,000×g for 2 mins. The supernatant was removed and the pellets were frozen at −20° C.
# Test compounds were prepared in DMSO at a concentration of 10 mg/mL. These compound stocks were diluted into DMSO to a concentration of 25 μg/mL and serial 3-fold dilutions were made in DMSO, for a total of 11 compound concentrations. 20 nL of each compound solution was pre-spotted into a white 384-well plate (50 μL/well polypropylene, Nunc) using acoustic fluid transfer (Echo).
# Frozen S. aureus pellets were resuspended in assay buffer (1×PBS, 12.5 mg/L MgCl2, 25 mg/L CaCl2, 0.1% Tween-80) to an OD600 nm of 0.05, then mixed 1:1 (v/v) with 20 μM substrate ((Dabcyl)βAla-KPAKAAE(Edans)) in assay buffer, and this solution was added (20 μL/well) to the 384-well plate that had been pre-spotted with compound. Fluorescence intensity was then immediately read kinetically for 30 minutes with 2 minute read intervals to monitor cleavage of the internally quenched peptide substrate (excitation wavelength=340 nm, emission wavelength=490 nm, Molecular Devices Spectramax M5). Reaction rate (slope) was plotted against inhibitor concentration to derive the IC50.
# [5] = MRSA / NRS 384 / USA300, 22 h, read-out: MIC (μg/mL) S. aureus
# [6] = ATCC25922, E. coli ATCC 25922, 35° C., 22 hours
# [7] = MRSA / NRS 384 / USA300, MRSA USA 300, NRS384, 35° C., 22 hours, cation adjusted Mueller Hinton Broth with 0.002% Tween-80, read-out: MIC (μg/mL) S. aureus
# T1 sequence (P0A070 whole entry): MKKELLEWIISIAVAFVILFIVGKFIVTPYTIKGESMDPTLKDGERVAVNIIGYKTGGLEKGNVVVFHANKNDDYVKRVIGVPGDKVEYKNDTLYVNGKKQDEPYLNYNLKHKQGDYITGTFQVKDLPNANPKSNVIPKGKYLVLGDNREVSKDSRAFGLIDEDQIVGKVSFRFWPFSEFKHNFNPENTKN
SMILES,"MIC [1, 5] [µg/mL]","MIC ([2]; ATCC25922, 22 h) [µg/mL]",MIC [3] [µg/mL],"MIC [2, 6] [µg/mL]",IC50 [4] [nM],"MIC [1, 7] [µg/mL]"
CCCCCCc1ccc(C(=O)N[C@@H](CCN)C(=O)N(C)[C@@H]2C(=O)N[C@@H](C)C(=O)N[C@H](C(=O)O)Cc3ccc(O)c(c3)-c3cc2ccc3O)c(C)c1 [Compound 146],> 4,> 64,0.75,,,
CCCCc1ccc(-c2ccc(C(=O)N[C@@H](CCCCN)C(=O)N(C)[C@@H]3C(=O)N[C@@H](C)C(=O)N[C@H](C(=O)NCCC#N)Cc4ccc(OCCN)c(c4)-c4cc3ccc4OCCN)cc2)cc1 [Compound 119],,,1,24,71,
CCCCCCCc1ccc(C(=O)N[C@@H](CCN)C(=O)N(C)[C@@H]2C(=O)N[C@@H](C)C(=O)N[C@H](C(=O)NS(=O)(=O)CCl)Cc3ccc(OCCN)c(c3)-c3cc2ccc3OCCN)c(C)c1 [Compound 104],,,0.023,4,,0.75
CCCCc1ccc(-c2ccc(C(=O)N[C@@H](CCCN)C(=O)N(C)[C@@H]3C(=O)N[C@@H](C)C(=O)N[C@H](C(=O)NC#N)Cc4ccc(OCCN)c(c4)-c4cc3ccc4OCCN)cc2)cc1 [Compound 134],,,0.13,4,7.1,1
CCCCCCCc1ccc(C(=O)N[C@@H](CCN)C(=O)N(C)[C@@H]2C(=O)N[C@@H](C)C(=O)N[C@H](C(=O)N[C@@H](C)C(=O)NOC(C)=O)Cc3ccc(OCCN)c(c3)-c3cc2ccc3OCCN)c(C)c1 [Compound 108],0.75,32,0.5,,,
CCCCCCCCc1ccc(C(=O)N[C@@H](CCN)C(=O)N(C)[C@@H]2C(=O)N[C@@H](C)C(=O)N[C@H](C(=O)NCC(=O)NCC#N)Cc3ccc(OCCN)c(c3)-c3cc2ccc3OCCN)c(C)c1 [Compound 114],0.5,8,0.13,,,
C=CC(=O)N(C)NC(=O)[C@@H]1Cc2ccc(OCCN)c(c2)-c2cc(ccc2OCCN)[C@H](N(C)C(=O)[C@H](CCN)NC(=O)c2ccc(CCCC)cc2C)C(=O)N[C@@H](C)C(=O)N1 [Compound 144],,,2,64,,> 4
CCCCc1ccc(-c2ccc(C(=O)N[C@@H](CCCN)C(=O)N(C)[C@@H]3C(=O)N[C@@H](C)C(=O)N[C@H](C(=O)NN)Cc4ccc(OCCN)c(c4)-c4cc3ccc4OCCN)cc2)cc1 [Compound 137],0.5,3,0.094,,1.4,
CCCCCCCc1ccc(C(=O)N[C@@H](CCN)C(=O)N(C)[C@@H]2C(=O)N[C@@H](C)C(=O)N[C@H](C(=O)N[C@@H](C)C(=O)Oc3ccccc3)Cc3ccc(OCCN)c(c3)-c3cc2ccc3OCCN)c(C)c1 [Compound 148],,,,15.8,,0.5
CCCCCCCc1ccc(C(=O)N[C@@H](CCN)C(=O)N(C)[C@@H]2C(=O)N[C@@H](C)C(=O)N[C@H](C(=O)O)Cc3ccc(OCCN)c(c3)-c3cc2ccc3OCCN)c(C)c1 [Compound 103],0.17,0.75,0.0078,,,
C=C(C#N)NC(=O)[C@@H]1Cc2ccc(OCCN)c(c2)-c2cc(ccc2OCCN)[C@H](N(C)C(=O)[C@H](CCCN)NC(=O)c2ccc(-c3ccc(CCCC)cc3)cc2)C(=O)N[C@@H](C)C(=O)N1 [Compound 130],0.38,6,0.13,,,
CCCCc1ccc(-c2ccc(C(=O)N[C@@H](CCCN)C(=O)N(C)[C@@H]3C(=O)N[C@@H](C)C(=O)N[C@H](/C=C/C#N)Cc4ccc(OCCN)c(c4)-c4cc3ccc4OCCN)cc2)cc1 [Compound 138],4,16,0.5,,,
CCCCCCOc1ccc(C(=O)N[C@@H](CCN)C(=O)N(C)[C@@H]2C(=O)N[C@@H](C)C(=O)N[C@H](C(=O)N[C@@H](C)C(=O)c3nnn[nH]3)Cc3ccc(OCCN)c(c3)-c3cc2ccc3OCCN)c(Cl)c1 [Compound 116],0.063,4,0.063,,,
CCCCc1ccc(-c2ccc(C(=O)N[C@@H](CCCN)C(=O)N(C)[C@@H]3C(=O)N[C@@H](C)C(=O)N[C@H](c4nccc(=O)[nH]4)Cc4ccc(OCCN)c(c4)-c4cc3ccc4OCCN)cc2)cc1 [Compound 135],> 4,32,1.5,,,
CCCCCCCc1ccc(C(=O)N[C@@H](CCN)C(=O)N(C)[C@@H]2C(=O)N[C@@H](C)C(=O)N[C@H](C(=O)N[C@@H](C)/C=N/N3CC(=O)NC3=O)Cc3ccc(OCCN)c(c3)-c3cc2ccc3OCCN)c(C)c1 [Compound 102],,,0.094,8,,0.13
CCCCCCCc1ccc(C(=O)N[C@@H](CCN)C(=O)N(C)[C@@H]2C(=O)N[C@@H](C)C(=O)N[C@H](C(=O)N[C@@H](C)C(=O)NOC(N)=O)Cc3ccc(OCCN)c(c3)-c3cc2ccc3OCCN)c(C)c1 [Compound 149],,,,16.1,,0.25
CCCCCCCc1ccc(C(=O)N[C@@H](CCN)C(=O)N(C)[C@@H]2C(=O)N[C@@H](C3CC3)C(=O)N[C@H](C(=O)N[C@@H](C)C(C)=O)Cc3ccc(OCCN)c(c3)-c3cc2ccc3OCCN)c(C)c1 [Compound 150],,,,4.39,,0.068
C[C@@H]1NC(=O)[C@@H](N(C)C(=O)[C@H](CCCCN)NC(=O)c2ccc(-c3ccc(Cl)cc3)cc2)c2ccc(O)c(c2)-c2cc(ccc2O)C[C@@H](C(=O)NN(C)C(=O)CCl)NC1=O [Compound 145],2,> 64,4,,,
CCCCc1ccc(-c2ccc(C(=O)N[C@@H](CN)C(=O)N(C)[C@@H]3C(=O)N[C@@H](C)C(=O)N[C@H](C(=O)NC(C)=O)Cc4ccc(OCCN)c(c4)-c4cc3ccc4OCCN)cc2)cc1 [Compound 122],1.5,3,0.094,,,
CCCCCCCc1ccc(C(=O)N[C@@H](CCN)C(=O)N(C)[C@@H]2C(=O)N[C@@H](C)C(=O)N[C@H](C(=O)NS(=O)(=O)O)Cc3ccc(OCCN)c(c3)-c3cc2ccc3OCCN)c(C)c1 [Compound 111],0.25,8,0.063,,,
CCCCCCCc1ccc(C(=O)N[C@@H](CCN)C(=O)N(C)[C@@H]2C(=O)N[C@@H](C)C(=O)N[C@H](C(=O)NC/C=N/N3CC(=O)NC3=O)Cc3ccc(OCCN)c(c3)-c3cc2ccc3OCCN)c(C)c1 [Compound 101],,,0.031,4,,0.094
CCCCc1ccc(-c2ccc(C(=O)N[C@@H](CN)C(=O)N(C)[C@@H]3C(=O)N[C@@H](C)C(=O)N[C@H](c4nsc(=O)[nH]4)Cc4ccc(OCCN)c(c4)-c4cc3ccc4OCCN)cc2)cc1 [Compound 132],4,8,0.25,,,
